We go through one molecule from patent publication US11299496B2, “Ligands for alpha-7 nicotinic acetylcholine receptors and methods of treating neurological and inflammatory conditions” (Northeastern University, priority 2014, dated 2022).

The target of one experiment is T1, human alpha-7 nAChR (Homo sapiens, UniProt P36544).
T1 construct: expressed in transfected cells; host or cells: Xenopus laevis oocytes (cRNA injection)
The experiment in a line: Two-electrode voltage clamp of alpha-7 nAChR expressed in Xenopus oocytes (net charge). The class given is cell-based. The method, boiled down:
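Human α7 nAChR co-expressed with RIC-3 in Xenopus oocytes; two-electrode clamp at −60 mV, 12 s applications in Ringer's pH 7.3. Net charge integrated over 120 s from application, normalized to prior ACh controls; measured for compound alone and with choline or ACh; n≥4 oocytes.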

In a further experiment the test system is normal mice. The experiment in a line: Morris water maze memory test. The class given is in vivo, mouse. The protocol: This test was carried out in normal mice using a Morris water maze.

T1 sequence (P36544 23-502): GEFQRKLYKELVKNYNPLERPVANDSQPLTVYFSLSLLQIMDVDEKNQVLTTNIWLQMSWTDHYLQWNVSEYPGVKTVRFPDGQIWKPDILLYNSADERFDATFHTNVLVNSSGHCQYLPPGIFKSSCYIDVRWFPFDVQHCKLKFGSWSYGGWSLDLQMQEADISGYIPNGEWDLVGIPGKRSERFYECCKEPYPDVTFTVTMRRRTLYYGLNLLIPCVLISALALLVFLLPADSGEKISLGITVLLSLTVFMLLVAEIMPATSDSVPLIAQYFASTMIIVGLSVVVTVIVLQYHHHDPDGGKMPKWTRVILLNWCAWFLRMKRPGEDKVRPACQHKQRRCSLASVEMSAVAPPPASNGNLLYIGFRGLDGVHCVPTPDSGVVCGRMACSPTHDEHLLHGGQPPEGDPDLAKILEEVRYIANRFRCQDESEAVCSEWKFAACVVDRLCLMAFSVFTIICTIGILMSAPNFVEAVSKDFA

`NS(=O)(=O)c1ccc2c(c1)[C@H]1C=CC[C@H]1[C@@H](c1ccc(Br)cc1)N2` [Compound 1, (3aR,4S,9bS)-4-(4-bromophenyl)-3a,4,5,9b-tetrahydro-3H-cyclopenta[c]quinoline-8-sulfonamide]: the “Charge Alone” value at human alpha-7 nAChR (compound alone acting as an allosteric agonist, area under the curve of current vs. time) was 450. Also, the “Charge +C” value on human alpha-7 nAChR (compound together with choline or ACh, includes PAM and ago-PAM activity, area under the curve of current vs. time) is 1700. At human alpha-7 nAChR (enantioseparation and electrophysiological characterization), the “activity of separated enantiomer vs racemate 4BP-TQS” value was “all the activity of the racemate of 4BP-TQS lies in one enantiomer”. Also, the “memory defects in scopolamine-treated mice” value in the experiment with normal mice (FIG. 6) was “dose dependently reversed the memory defects”. The “latency to find the platform, compound given alone” value in the experiment on normal mice (normal mice) was “reduced the latency for the mice to find the platform”.
